“And” between values parts separate entries of the source, which are not always exact repeats. Identical values can stand only once. Inconclusive results and toxic doses are left out. Rule for the calls: active = survival T/C of 150% or more; inactive = T/C below 125% in these data. Square brackets hold non-standard residues; d marks the D form. Peptide text beside a SMILES is read from it. * marks the point of attachment. ξ: configuration not given here. Cbz = O=C(OCc1ccccc1)*; ξNva = CCCC(N)C(=O)O
Test system: P388 leukemia ip, CD2F1 mice, survival T/C
Assay: NCI In Vivo Anticancer Drug Screen. Data for tumor model P388 Leukemia (intraperitoneal) in CD2F1 (CDF1) mice
Details: endpoint: median survival time, higher = longer survival
Summary of the method: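 Mice carrying the transplanted tumor received test compound or vehicle. Survival was recorded in each group, and the value is the treated-group measurement divided by that of the vehicle-treated control group.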

[1] = dose: 50.0 mg/kg/injection, schedule: Q01DX005 (ip), vehicle: Klucel (hydroxypropylcellulose) (HPC)
[2] = dose: 100.0 mg/kg/injection, schedule: Q01DX005 (ip), vehicle: Klucel (hydroxypropylcellulose) (HPC)
[3] = dose: 200.0 mg/kg/injection, schedule: Q01DX005 (ip), vehicle: Klucel (hydroxypropylcellulose) (HPC)
[4] = dose: 50.0 mg/kg/injection, schedule: Q01DX009 (ip), vehicle: saline with Tween-80
[5] = dose: 50.0 mg/kg/injection, schedule: Q01DX005 (ip), vehicle: saline with Tween-80
[6] = dose: 100.0 mg/kg/injection, schedule: Q01DX005 (ip), vehicle: saline with Tween-80
[7] = dose: 200.0 mg/kg/injection, schedule: Q01DX005 (ip), vehicle: saline with Tween-80
[8] = dose: 50.0 mg/kg/injection, schedule: Q01DX009 (ip), vehicle: Klucel (hydroxypropylcellulose) (HPC)
[9] = dose: 100.0 mg/kg/injection, schedule: Q01DX009 (ip), vehicle: Klucel (hydroxypropylcellulose) (HPC)
[10] = dose: 50.0 mg/kg/injection, schedule: Q01DX009 (ip), vehicle: saline
[11] = dose: 100.0 mg/kg/injection, schedule: Q04DX003 (ip), vehicle: Klucel (hydroxypropylcellulose) (HPC)
[12] = dose: 60.0 mg/kg/injection, schedule: Q01DX005 (ip), vehicle: saline with Tween-80
[13] = dose: 100.0 mg/kg/injection, schedule: Q01DX009 (ip), vehicle: saline with Tween-80
[14] = dose: 200.0 mg/kg/injection, schedule: Q01DX009 (ip), vehicle: saline with Tween-80

Measured: T/C

O=C1c2ccccc2C(=O)N1CCP(=O)(c1ccccc1)c1ccccc1
inactive: dose: 12.5 mg/kg/injection, schedule: Q01DX009 (ip), vehicle: other 98 % of control | dose: 25.0 mg/kg/injection, schedule: Q01DX009 (ip), vehicle: other 106 % of control | dose: 50.0 mg/kg/injection, schedule: Q01DX009 (ip), vehicle: other 98 % of control | dose: 100.0 mg/kg/injection, schedule: Q01DX009 (ip), vehicle: other 91 % of control | dose: 200.0 mg/kg/injection, schedule: Q01DX009 (ip), vehicle: other 91 % of control

Cc1[nH]nc2oc(=O)c3ccccc3c12
inactive: [1] 105 % of control | [2] 102 % of control | [3] 102 % of control

CCCC(NC(=O)OCc1ccccc1)C(=O)NCC(=O)NCC(=O)OC (stereo not drawn) (Cbz-[ξNva]-Gly-Gly-OMe)
inactive: [1] 110 % of control | [2] 113 % of control | [3] 113 % of control

CN1C(=O)C(N=O)C(=O)N(C)C1=S
inactive: dose: 6.25 mg/kg/injection, schedule: Q04DX002 (ip), vehicle: saline with Tween-80 99 % of control | dose: 12.5 mg/kg/injection, schedule: Q04DX002 (ip), vehicle: saline with Tween-80 100 % of control | dose: 25.0 mg/kg/injection, schedule: Q04DX002 (ip), vehicle: saline with Tween-80 101 % of control

CC(=O)Nc1ccc2c(c1)N(O)C(=O)C2(C)C
inactive: [1] 97 % of control | [2] 95 % of control | [3] 102 % of control

CC1CC[N-]CC1.CC1CC[N-]CC1.CC1CC[N-]CC1.CC1CC[N-]CC1.[Cl][Rh][Cl]
inactive: dose: 25.0 mg/kg/injection, schedule: Q01DX009 (ip), vehicle: saline with Tween-80 104 % of control | [4] 104 % of control

C[S+](C)CCCl
inactive: dose: 50.0 mg/kg/injection, schedule: Q01DX005 (ip), vehicle: saline 100 % of control | dose: 100.0 mg/kg/injection, schedule: Q01DX005 (ip), vehicle: saline 107 % of control | dose: 200.0 mg/kg/injection, schedule: Q01DX005 (ip), vehicle: saline 109 % of control

Cn1c(=O)[nH]c(N)c(NC=O)c1=O
inactive: [5] 103 % of control | [6] 101 % of control | [7] 101 % of control

COC(=O)C1CC(OC(C)=O)C(=O)[C@H]2C1(C)CC[C@H]1C(=O)O[C@H](c3ccoc3)CC12C (stereo not given in full)
inactive: dose: 19.0 mg/kg/injection, schedule: Q01DX005 (ip), vehicle: Klucel (hydroxypropylcellulose) (HPC) 94 % of control | dose: 38.0 mg/kg/injection, schedule: Q01DX005 (ip), vehicle: Klucel (hydroxypropylcellulose) (HPC) 87 % of control | dose: 76.0 mg/kg/injection, schedule: Q01DX005 (ip), vehicle: Klucel (hydroxypropylcellulose) (HPC) 90 % of control

O=C(NC(Cc1ccc(O)cc1)C(=O)NC(Cc1c[nH]c2ccccc12)C(=O)O)OCc1ccccc1 (stereo not given)
inactive: [5] 106 % of control | [6] 103 % of control | [7] 106 % of control

COc1ccc(-c2c3c(c(O)c4cc5c(cc24)OCO5)COC3=O)cc1OC
inactive: dose: 12.5 mg/kg/injection, schedule: Q01DX009 (ip), vehicle: Klucel (hydroxypropylcellulose) (HPC) 95 % of control | dose: 25.0 mg/kg/injection, schedule: Q01DX009 (ip), vehicle: Klucel (hydroxypropylcellulose) (HPC) 104 % of control | [8] 99 % of control | [9] 105 % of control

CC(=O)CCC(=O)c1ccoc1
inactive: dose: 3.12 mg/kg/injection, schedule: Q01DX005 (ip), vehicle: Klucel (hydroxypropylcellulose) (HPC) 94 % of control | dose: 6.25 mg/kg/injection, schedule: Q01DX005 (ip), vehicle: Klucel (hydroxypropylcellulose) (HPC) 103 % of control | dose: 12.5 mg/kg/injection, schedule: Q01DX005 (ip), vehicle: Klucel (hydroxypropylcellulose) (HPC) 100 % of control | dose: 25.0 mg/kg/injection, schedule: Q01DX005 (ip), vehicle: Klucel (hydroxypropylcellulose) (HPC) 102 % of control and 95 % of control

C[N+](C)(C)CCO
inactive: dose: 12.5 mg/kg/injection, schedule: Q01DX009 (ip), vehicle: saline 105 % of control | dose: 25.0 mg/kg/injection, schedule: Q01DX009 (ip), vehicle: saline 98 % of control | [10] 96 % of control

CC(C)Cn1c(Cl)c(/C=N\Nc2ccc([N+](=O)[O-])cc2)c2ccccc21
inactive: dose: 12.5 mg/kg/injection, schedule: Q01DX001 (ip), vehicle: saline 94 % of control | dose: 25.0 mg/kg/injection, schedule: Q01DX001 (ip), vehicle: saline 88 % of control | dose: 50.0 mg/kg/injection, schedule: Q01DX001 (ip), vehicle: saline 96 % of control

O=C(CCl)N1c2ccccc2Sc2ccc3ccccc3c21
inactive: [10] 95 % of control | dose: 100.0 mg/kg/injection, schedule: Q01DX009 (ip), vehicle: saline 102 % of control | dose: 200.0 mg/kg/injection, schedule: Q01DX009 (ip), vehicle: saline 113 % of control

O=C1OCCC(O)=C1C=NCc1ccccc1
inactive: dose: 25.0 mg/kg/injection, schedule: Q04DX003 (ip), vehicle: Klucel (hydroxypropylcellulose) (HPC) 105 % of control | dose: 50.0 mg/kg/injection, schedule: Q04DX003 (ip), vehicle: Klucel (hydroxypropylcellulose) (HPC) 104 % of control | [11] 99 % of control and 88 % of control

O=C(O)C1C2C=CC(C2)C1c1c2ccc(=O)c(O)c-2oc2c(O)c(O)ccc12 (stereo not given)
inactive: [12] 102 % of control | dose: 120.0 mg/kg/injection, schedule: Q01DX005 (ip), vehicle: saline with Tween-80 101 % of control | dose: 240.0 mg/kg/injection, schedule: Q01DX005 (ip), vehicle: saline with Tween-80 111 % of control

COc1ccc(OC)c(/C=C/C2=C(C)C(=O)CC(c3cc(OC)ccc3OC)C2C)c1 (stereo not given)
inactive: [11] 90 % of control | dose: 200.0 mg/kg/injection, schedule: Q04DX003 (ip), vehicle: Klucel (hydroxypropylcellulose) (HPC) 88 % of control

CCOc1cccc(/C=C2\NC(=S)N(c3ccccc3)C2=O)c1O
inactive: [1] 101 % of control | [2] 93 % of control | [3] 99 % of control

O=C(Nc1ccc(Cl)c(Cl)c1)OCc1ccco1
inactive: dose: 60.0 mg/kg/injection, schedule: Q01DX005 (ip), vehicle: Klucel (hydroxypropylcellulose) (HPC) 105 % of control | dose: 120.0 mg/kg/injection, schedule: Q01DX005 (ip), vehicle: Klucel (hydroxypropylcellulose) (HPC) 105 % of control

COC(=O)C1(CS(C)(=O)=O)NC(=S)NC(=O)C1C#N (stereo not given)
inactive: dose: 60.0 mg/kg/injection, schedule: Q01DX005 (ip), vehicle: saline 97 % of control | dose: 120.0 mg/kg/injection, schedule: Q01DX005 (ip), vehicle: saline 91 % of control | dose: 240.0 mg/kg/injection, schedule: Q01DX005 (ip), vehicle: saline 91 % of control

Cc1nc(O)c(-c2ccccc2)s1
inactive: [4] 104 % of control | [13] 105 % of control | [14] 92 % of control

COc1nc(Nc2cccc(F)c2)nc(OC)n1
inactive: [8] 98 % of control | [9] 95 % of control | dose: 200.0 mg/kg/injection, schedule: Q01DX009 (ip), vehicle: Klucel (hydroxypropylcellulose) (HPC) 101 % of control

COC1=CC2(CCN(C)C(=O)C(F)(F)F)C(=CC1=O)CCc1ccc(OC)c(O)c12 (stereo not given)
inactive: dose: 100.0 mg/kg/injection, schedule: Q04DX002 (ip), vehicle: saline with Tween-80 101 % of control | dose: 200.0 mg/kg/injection, schedule: Q04DX002 (ip), vehicle: saline with Tween-80 100 % of control | dose: 400.0 mg/kg/injection, schedule: Q04DX002 (ip), vehicle: saline with Tween-80 93 % of control

CN(C)c1cccc2c(S(=O)(=O)Cl)cccc12
inactive: dose: 25.0 mg/kg/injection, schedule: Q04DX003 (ip), vehicle: saline with Tween-80 106 % of control | dose: 50.0 mg/kg/injection, schedule: Q04DX003 (ip), vehicle: saline with Tween-80 114 % of control | dose: 100.0 mg/kg/injection, schedule: Q04DX003 (ip), vehicle: saline with Tween-80 110 % of control | dose: 200.0 mg/kg/injection, schedule: Q04DX003 (ip), vehicle: saline with Tween-80 124 % of control

O=C(CNC(=O)Nc1ccc(Cl)c(Cl)c1)N/N=C/c1cccc(F)c1
inactive: dose: 15.0 mg/kg/injection, schedule: Q01DX005 (ip), vehicle: saline with Tween-80 89 % of control | dose: 30.0 mg/kg/injection, schedule: Q01DX005 (ip), vehicle: saline with Tween-80 91 % of control | [12] 89 % of control

CCCCCCCCOCC(=O)O
inactive: [4] 107 % of control | [13] 94 % of control | [14] 96 % of control

Cc1ccccc1/C=N\N1C(=O)C(C)SC1c1ccccc1C (stereo not given)
inactive: [4] 91 % of control | [13] 93 % of control

From PubChem BioAssay AID330 (DTP/NCI, 2004)
